Reference: article PMC5986738, “Thiazole Amides, A Novel Class of Algaecides against Freshwater Harmful Algae” (Scientific Reports, 2018)
In brackets after ≈: the same amount, converted by molar mass.

How the values were obtained:
C. pyrenoidosa = test: Algicidal activity (growth inhibition, microplate, absorbance 650 nm) against C. pyrenoidosa; type: cell-based, Chlorella pyrenoidosa; details: 96-hour IC50, mean ± SD; for IC50: Auxenochlorella pyrenoidosa, read-out: IC50 value C. pyrenoidosa
Procedure: (§1) According to the method established by Schrader et al.[42], algicidal activity of alkaloid (1) and its amide analogues (7–32), as well as their hydrochloric salts (7S–27S), was evaluated against three typical […] algae, S. obliqnus, M. aeruginosa, and C. Pyrenoidosa at different concentrations. After three algae species were inoculated, the variation of algae density over 7 days were recorded continuously. […] The wavelength at 650 nm was determined as ideal incident wavelength for the measurement of algae density. Three […] algae S. obliqnus, M. aeruginosa, and C. pyrenoidosa were offered by Freshwater algae culture collection of the institute of Hydrobiology (FACHB-collection). Each culture for three species was maintained separately in continuous, steady-state growth microplates, which were placed in a growth chamber held at 28 ± 1 °C and illuminated continuously under fluorescent lights at a photon flux density of […]. Absorbance values of each wells were measured by a Packard model Spectra Count microplate photometer.
(§2) Alkaloid (1) and its analogues (7–32), as well as their hydrochloric salts (7S–27S), were dissolved separately in DMSO to provide stock solution concentrations. Initially, each stock solution was aseptically pipetted into the bottom of separate wells (20 μL per well) in a 96-well microplate and the final test concentrations for each sample were 0, 0.78, 1.56, 3.12, 6.25, 12.5, and 25 μg/mL. Wells of control samples contained only unialgal culture. The solution of CuSO4 and Diuron at the same concentration were chose as the reference sample. Each experiment was performed at least three times. Through measuring the area values under the individual growth curves, the inhibitory rate (%) for the individual tested concentration was calculated according to the following equation (1):1 Ii=(Ac−Ai)/[…]×100% • Ii: inhibitory rate of biomass growth by toxicant concentration i (%) • Ac: average area under the growth curve by control sample • Ai: average area under the growth curve by test concentration i
(§3) Mean values of 96-hour IC50 were determined for each group of plates, and standard deviation were calculated and reported as the mean ± SD.
(§4) The IC50 values of all compounds against three freshwater algae species were calculated using SPSS v19.0, and the algicidal activities of alkaloid (1) and its amide analogues (7–32), as well as the corresponding hydrochloric salts (7S–27S) are listed in Table 1 and 2, respectively.

M. aeruginosa = test: Algicidal activity (growth inhibition, microplate, absorbance 650 nm) against M. aeruginosa; type: cell-based; details: 96-hour IC50, mean ± SD; for IC50: Microcystis aeruginosa, read-out: IC50 value M. aeruginosa
Procedure: as §1, §2, §3, §4
Currently, M. aeruginosa appears to be the most harmful algae existing in the freshwater bodies in the developing countries. To investigate growth inhibitory potential of this class of thiazole amides on M. aeruginosa, thiazole amide (10) and its hydrochloric acid salt (10S) were subject to further survey for the optimal inhibition time and concentration (Figs 3 and 4). […] The variation of growth inhibitory ratios of compounds (10) and (10S) against M. aeruginosa at the lowest complete inhibition concentration is illustrated in Fig. 4. As observed, for administration of thiazole amide (10), the growth inhibitory ratios after 96 and 120 hours increase gradually to 79% and 92%, respectively. Under the same experimental conditions, growth inhibitory ratios for the salt (10S) are 82% and 88%, respectively.

S. obliqnus = test: Algicidal activity (growth inhibition, microplate, absorbance 650 nm) against S. obliqnus; type: cell-based; details: for IC50: 96 h, read-out: IC50 value S. obliqnus; for IC50 / IC50 value S. obliqnus: 96-hour IC50, mean ± SD
Procedure: as §1, §2, §3, §4

For `C[C@H](N)c1nc(C(=O)Nc2ccccc2)cs1` [compound 7], the IC50 (C. pyrenoidosa) was 4.61 ± 0.45 mg/L (≈ 18.6 µM), the melting point was 117 to 122 °C and the IC50 (M. aeruginosa) was 11.2 ± 1.12 mg/L (≈ 45.1 µM).
For `C[C@H](N)c1nc(C(=O)Nc2ccc(F)cc2)cs1` [compound 8], the IC50 (S. obliqnus) was 2.74 ± 0.11 mg/L (≈ 10.3 µM), the IC50 (C. pyrenoidosa) was 3.57 ± 0.37 mg/L (≈ 13.5 µM) and the IC50 (M. aeruginosa) was 4.51 ± 0.92 mg/L (≈ 17 µM).
`C[C@H](N)c1nc(C(=O)Nc2ccc(Cl)cc2)cs1` [compound 9] showed an IC50 (S. obliqnus) of 4.12 ± 0.13 mg/L (≈ 14.6 µM), an IC50 (C. pyrenoidosa) of 1.37 ± 0.12 mg/L (≈ 4.86 µM) and an IC50 (M. aeruginosa) of 2.19 ± 0.09 mg/L (≈ 7.77 µM).
For `Cc1ccc(NC(=O)c2csc([C@H](C)N)n2)cc1` [compound 11], the IC50 (S. obliqnus) was 2.66 ± 0.18 mg/L (≈ 10.2 µM), the IC50 (C. pyrenoidosa) was 10.4 ± 1.12 mg/L (≈ 39.8 µM) and the IC50 (M. aeruginosa) was 6.16 ± 1.13 mg/L (≈ 23.6 µM).
With `COc1ccc(NC(=O)c2csc([C@H](C)N)n2)cc1` [compound 12] the “algicidal activity, times higher than CuSO4 and Diuron” value (S. obliqnus; S. obliqnus, from IC50 values) was “more than 10 times”, the IC50 (C. pyrenoidosa) was 17.4 ± 0.92 mg/L (≈ 62.6 µM) and the melting point was 126 to 127 °C. It also gave an IC50 (M. aeruginosa) of 2.35 ± 0.91 mg/L (≈ 8.47 µM).
Compound `C[C@H](N)c1nc(C(=O)Nc2ccc(C(F)(F)F)cc2)cs1` [compound 13] has an IC50 (S. obliqnus) of 4.35 ± 0.17 mg/L (≈ 13.8 µM), an IC50 (C. pyrenoidosa) of 4.58 ± 0.23 mg/L (≈ 14.5 µM) and an IC50 (M. aeruginosa) of 2.36 ± 0.12 mg/L (≈ 7.48 µM).
`C[C@H](N)c1nc(C(=O)Nc2cccc(Cl)c2)cs1` [compound 14] showed an IC50 (S. obliqnus) of 1.52 ± 0.12 mg/L (≈ 5.39 µM), an IC50 (C. pyrenoidosa) of 4.37 ± 0.14 mg/L (≈ 15.5 µM) and a melting point of 155 to 159 °C. The IC50 (M. aeruginosa) was 5.19 ± 0.19 mg/L (≈ 18.4 µM).
With `CC(N)c1nc(C(=O)Nc2cccc(Br)c2)cs1` (centres unmarked) [compound 15] the “IC50 value C. pyrenoidosa” value (C. pyrenoidosa) was 5.77 ± 0.11 mg/L (≈ 17.7 µM) and the “IC50 value M. aeruginosa” value (M. aeruginosa) was 4.79 ± 0.15 mg/L (≈ 14.7 µM).
For `C[C@H](N)c1nc(C(=O)Nc2cccc(C(F)(F)F)c2)cs1` [compound 17], the IC50 (S. obliqnus) was 9.21 ± 1.12 mg/L (≈ 29.2 µM), the IC50 (C. pyrenoidosa) was 10.4 ± 0.99 mg/L (≈ 33.1 µM) and the IC50 (M. aeruginosa) was 12.2 ± 2.13 mg/L (≈ 38.7 µM).
Compound `C[C@H](N)c1nc(C(=O)Nc2ccccc2F)cs1` [compound 18] has an IC50 (S. obliqnus) of 3.95 ± 0.92 mg/L (≈ 14.9 µM), an IC50 (C. pyrenoidosa) of 3.41 ± 0.14 mg/L (≈ 12.9 µM) and an IC50 (M. aeruginosa) of 2.55 ± 0.19 mg/L (≈ 9.61 µM).
With `C[C@H](N)c1nc(C(=O)Nc2ccccc2Cl)cs1` [compound 19] the IC50 (C. pyrenoidosa) was 8.16 ± 1.34 mg/L (≈ 29 µM) and the IC50 (M. aeruginosa) was 12.2 ± 1.16 mg/L (≈ 43.4 µM).
`C[C@H](N)c1nc(C(=O)Nc2ccccc2Br)cs1` [compound 20] showed an IC50 (S. obliqnus) of 3.31 ± 0.13 mg/L (≈ 10.1 µM), an IC50 (C. pyrenoidosa) of 2.84 ± 0.93 mg/L (≈ 8.71 µM) and an IC50 (M. aeruginosa) of 8.79 ± 1.23 mg/L (≈ 26.9 µM).
With `Cc1ccccc1NC(=O)c1csc([C@H](C)N)n1` [compound 21] the IC50 (C. pyrenoidosa) was 26.1 ± 3.25 mg/L (≈ 99.8 µM) and the IC50 (M. aeruginosa) was 10.1 ± 1.71 mg/L (≈ 38.5 µM).
Compound `C[C@H](N)c1nc(C(=O)Nc2ccc(OC(F)(F)F)cc2)cs1` [compound 23] has an IC50 (S. obliqnus) of 5.93 ± 0.11 mg/L (≈ 17.9 µM), an IC50 (C. pyrenoidosa) of 3.8 ± 0.16 mg/L (≈ 11.5 µM) and an IC50 (M. aeruginosa) of 7.2 ± 0.71 mg/L (≈ 21.7 µM).
`C[C@H](N)c1nc(C(=O)Nc2ccc(Cl)c(Cl)c2)cs1` [compound 24] showed an IC50 (S. obliqnus) of 4.31 ± 0.21 mg/L (≈ 13.6 µM), an IC50 (C. pyrenoidosa) of 5.11 ± 1.01 mg/L (≈ 16.2 µM) and an IC50 (M. aeruginosa) of 9.81 ± 1.13 mg/L (≈ 31 µM).
For `Cc1cc(NC(=O)c2csc([C@H](C)N)n2)ccc1F` [compound 25], the IC50 (S. obliqnus) was 1.81 ± 0.07 mg/L (≈ 6.48 µM), the IC50 (C. pyrenoidosa) was 5.1 ± 0.13 mg/L (≈ 18.3 µM) and the IC50 (M. aeruginosa) was 6.73 ± 1.21 mg/L (≈ 24.1 µM).
`CCOC(=O)c1ccc(NC(=O)c2csc([C@H](C)N)n2)cc1` [compound 26] showed an IC50 (S. obliqnus) of 29.5 ± 1.56 mg/L (≈ 92.5 µM), an IC50 (C. pyrenoidosa) of 4.16 ± 0.56 mg/L (≈ 13 µM) and an IC50 (M. aeruginosa) of 3.29 ± 0.21 mg/L (≈ 10.3 µM).
For `CC(N)c1nc(C(=O)Nc2ccccn2)cs1` (centres unmarked) [compound 28], the “IC50 value S. obliqnus” value (S. obliqnus) was 3.97 ± 0.17 mg/L (≈ 16 µM), the “IC50 value C. pyrenoidosa” value (C. pyrenoidosa) was 14.76 ± 1.26 mg/L (≈ 59.4 µM) and the “IC50 value M. aeruginosa” value (M. aeruginosa) was 3.09 ± 0.15 mg/L (≈ 12.4 µM).
For `C[C@H](N)c1nc(C(=O)NC(C)(C)C)cs1` [compound 29], the IC50 (S. obliqnus) was 6.23 ± 0.98 mg/L (≈ 27.4 µM), the IC50 (C. pyrenoidosa) was 3.46 ± 0.67 mg/L (≈ 15.2 µM) and the IC50 (M. aeruginosa) was 5.31 ± 0.45 mg/L (≈ 23.4 µM).
With `C[C@H](N)c1nc(C(=O)NCCc2ccccc2)cs1` [compound 31] the IC50 (S. obliqnus) was 5.98 ± 0.49 mg/L (≈ 21.7 µM), the IC50 (C. pyrenoidosa) was 2.84 ± 0.56 mg/L (≈ 10.3 µM) and the IC50 (M. aeruginosa) was 57.5 ± 6.26 mg/L (≈ 209 µM).
For “N-(2-(1H-indol-3-yl)ethyl)-2-acetylthiazole-4-carboxamide [Alkaloid (1)]”, the “IC50 value S. obliqnus” value (S. obliqnus) was 14.33 ± 1.15 mg/L, the “IC50 value C. pyrenoidosa” value (C. pyrenoidosa) was 381.57 ± 5.16 mg/L and the “IC50 value M. aeruginosa” value (M. aeruginosa) was 114.60 ± 3.35 mg/L.
